Experimental data as given in ChEMBL document CHEMBL1201862, “PubChem BioAssay data set” (2004).
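96-well plates; 48 h exposure; 5 concentrations. Endpoints by linear interpolation between flanking doses. Not reached: highest tested concentration assigned. GI50: concentration for 50% inhibition of growth.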 Calls of active or inactive are those of the source. Rule as the data show it: active = GI50 up to about 1.1 µM and inactive = higher.

Legend:
Assay in all cases: NCI anticancer screen, dose series, 48 h
IGROV-1 = system: IGROV-1
SK-MEL-5 = system: SK-MEL-5
HT-29 = system: HT-29
NCI/ADR-RES = system: NCI/ADR-RES
Hs-578T = system: Hs-578T
UO-31 = system: UO-31
Malme-3M = system: Malme-3M
SK-MEL-2 = system: SK-MEL-2
DU-145 = system: DU-145
EKVX = system: EKVX
M14 = system: M14
MDA-MB-435 = system: MDA-MB-435
SF-295 = system: SF-295
UACC-62 = system: UACC-62
NCI-H460 = system: NCI-H460
LOX IMVI = system: LOX IMVI
MDA-MB-231 = system: MDA-MB-231
CCRF-CEM = system: CCRF-CEM
786-0 = system: 786-0
MOLT-4 = system: MOLT-4
HOP-62 = system: HOP-62
NCI-H522 = system: NCI-H522
OVCAR-4 = system: OVCAR-4
ACHN = system: ACHN
OVCAR-5 = system: OVCAR-5
HCC 2998 = system: HCC 2998
A498 = system: A498
SW-620 = system: SW-620
RPMI-8226 = system: RPMI-8226
MDA-N = system: MDA-N
NCI-H23 = system: NCI-H23
SK-MEL-28 = system: SK-MEL-28
BT-549 = system: BT-549
NCI-H226 = system: NCI-H226
SNB-75 = system: SNB-75
HCT-116 = system: HCT-116
TK-10 = system: TK-10
RXF 393 = system: RXF 393
PC-3 = system: PC-3
SNB-19 = system: SNB-19
OVCAR-8 = system: OVCAR-8
SK-OV-3 = system: SK-OV-3
UACC-257 = system: UACC-257
KM12 = system: KM12
HCT-15 = system: HCT-15
COLO 205 = system: COLO 205
HL-60 = system: HL-60
MCF7 = system: MCF7
HOP-92 = system: HOP-92
A549 = system: A549
U-251 = system: U-251
T47D = system: T47D
SF-268 = system: SF-268
CAKI-1 = system: CAKI-1
SF-539 = system: SF-539
OVCAR-3 = system: OVCAR-3
SR = system: SR
K562 = system: K562
SN12C = system: SN12C

CC1OC(OC2C(O[C@H]3CC[C@@]4(C)[C@@H](CC[C@@H]5[C@@H]4CC[C@]4(C)[C@@H]6[C@H](C[C@@H]54)O[C@]4(CC[C@@H](C)CO4)[C@H]6C)C3)OC(CO)C(OC3OC(CO)C(O)C(OC4OCC(O)C(O)C4O)C3OC3OCC(O)C(O)C3O)C2O)C(O)C(O)C1O (some centres undefined)
GI50 (IGROV-1): 1.01 µM (active) | GI50 (SK-MEL-5): 1.12 µM (inactive) | GI50 (HT-29): 0.495 µM (active) | GI50 (NCI/ADR-RES): 1.58 µM (inactive) | GI50 (Hs-578T): 1.03 µM (active) | GI50 (UO-31): 1.04 µM (active) | GI50 (Malme-3M): 1.26 µM (inactive) | GI50 (SK-MEL-2): 1.02 µM (active) | GI50 (DU-145): 1.32 µM (inactive) | GI50 (EKVX): 1.51 µM (inactive) | GI50 (M14): 0.434 µM (active) | GI50 (MDA-MB-435): 1.42 µM (inactive) | GI50 (SF-295): 0.904 µM (active) | GI50 (UACC-62): 0.746 µM (active) | GI50 (NCI-H460): 0.625 µM (active) | GI50 (LOX IMVI): 0.514 µM (active) | GI50 (MDA-MB-231): 2.03 µM (inactive) | GI50 (CCRF-CEM): 0.224 µM (active) | GI50 (786-0): 1.64 µM (inactive) | GI50 (MOLT-4): 1.04 µM (active) | GI50 (HOP-62): 0.783 µM (active) | GI50 (NCI-H522): 0.676 µM (active) | GI50 (OVCAR-4): 1.47 µM (inactive) | GI50 (ACHN): 0.942 µM (active) | GI50 (OVCAR-5): 1.16 µM (inactive) | GI50 (HCC 2998): 1.63 µM (inactive) | GI50 (A498): 1.68 µM (inactive) | GI50 (SW-620): 0.251 µM (active) | GI50 (RPMI-8226): 0.593 µM (active) | GI50 (MDA-N): 3.73 µM (inactive) | GI50 (NCI-H23): 1.52 µM (inactive) | GI50 (SK-MEL-28): 0.745 µM (active) | GI50 (BT-549): 1.08 µM (active) | GI50 (NCI-H226): 1.87 µM (inactive) | GI50 (SNB-75): 1.45 µM (inactive) | GI50 (HCT-116): 0.321 µM (active) | GI50 (TK-10): 1.66 µM (inactive) | GI50 (RXF 393): 0.54 µM (active) | GI50 (PC-3): 0.64 µM (active) | GI50 (SNB-19): 0.995 µM (active) | GI50 (OVCAR-8): 1.49 µM (inactive) | GI50 (SK-OV-3): 1.9 µM (inactive) | GI50 (UACC-257): 1.3 µM (inactive) | GI50 (KM12): 0.518 µM (active) | GI50 (HCT-15): 1.21 µM | GI50 (COLO 205): 0.351 µM (active) | GI50 (HL-60): 0.282 µM (active) | GI50 (MCF7): 0.342 µM (active) | GI50 (HOP-92): 1.67 µM (inactive) | GI50 (A549): 0.336 µM (active) | GI50 (U-251): 0.514 µM (active) | GI50 (T47D): 1.8 µM (inactive) | GI50 (SF-268): 1.69 µM (inactive) | GI50 (CAKI-1): 0.706 µM (active) | GI50 (SF-539): 0.303 µM (active) | GI50 (OVCAR-3): 1.74 µM (inactive)

O=c1c2ccccc2[nH]c(=S)n1-c1ccc(/N=N/c2cccc3c(O)cccc23)cc1
GI50 (IGROV-1): 55.3 µM (inactive) | GI50 (SK-MEL-5): 24.9 µM (inactive) | GI50 (HT-29): > 100 µM (inactive) | GI50 (NCI/ADR-RES): > 100 µM (inactive) | GI50 (Hs-578T): > 100 µM (inactive) | GI50 (UO-31): > 100 µM (inactive) | GI50 (Malme-3M): 88.9 µM (inactive) | GI50 (SK-MEL-2): > 100 µM (inactive) | GI50 (DU-145): > 100 µM (inactive) | GI50 (EKVX): > 100 µM (inactive) | GI50 (M14): 50.8 µM (inactive) | GI50 (MDA-MB-435): 23 µM (inactive) | GI50 (SF-295): > 100 µM (inactive) | GI50 (UACC-62): 24.4 µM (inactive) | GI50 (NCI-H460): > 100 µM (inactive) | GI50 (LOX IMVI): 39 µM (inactive) | GI50 (MDA-MB-231): 53.3 µM (inactive) | GI50 (CCRF-CEM): > 100 µM (inactive) | GI50 (786-0): > 100 µM (inactive) | GI50 (MOLT-4): 45.3 µM (inactive) | GI50 (HOP-62): > 100 µM (inactive) | GI50 (NCI-H522): > 100 µM (inactive) | GI50 (SR): 74.5 µM (inactive) | GI50 (OVCAR-4): > 100 µM (inactive) | GI50 (ACHN): 88.3 µM (inactive) | GI50 (OVCAR-5): 76.7 µM (inactive) | GI50 (HCC 2998): > 100 µM (inactive) | GI50 (SW-620): > 100 µM (inactive) | GI50 (RPMI-8226): 65.3 µM (inactive) | GI50 (MDA-N): 34.4 µM (inactive) | GI50 (NCI-H23): > 100 µM (inactive) | GI50 (SK-MEL-28): > 100 µM (inactive) | GI50 (BT-549): > 100 µM (inactive) | GI50 (NCI-H226): > 100 µM (inactive) | GI50 (SNB-75): > 100 µM (inactive) | GI50 (K562): 36.2 µM (inactive) | GI50 (HCT-116): > 100 µM (inactive) | GI50 (TK-10): > 100 µM (inactive) | GI50 (RXF 393): > 100 µM (inactive) | GI50 (PC-3): 67.6 µM (inactive) | GI50 (SNB-19): > 100 µM (inactive) | GI50 (OVCAR-8): > 100 µM (inactive) | GI50 (SK-OV-3): > 100 µM (inactive) | GI50 (UACC-257): 50.9 µM (inactive) | GI50 (KM12): > 100 µM (inactive) | GI50 (HCT-15): 38.5 µM | GI50 (COLO 205): 32 µM (inactive) | GI50 (HL-60): 54.8 µM (inactive) | GI50 (MCF7): 13.5 µM (inactive) | GI50 (SN12C): > 100 µM (inactive) | GI50 (HOP-92): > 100 µM (inactive) | GI50 (A549): > 100 µM (inactive) | GI50 (U-251): 87.5 µM (inactive) | GI50 (T47D): > 100 µM (inactive) | GI50 (SF-268): > 100 µM (inactive) | GI50 (CAKI-1): > 100 µM (inactive) | GI50 (SF-539): > 100 µM (inactive) | GI50 (OVCAR-3): 62.2 µM (inactive)
